{"source": "patent US9637738B2", "about": "“Methods and agents to increase therapeutic dystrophin expression in muscle” (Reveragen Biopharma, Inc., priority 2013, dated 2017)", "key": {"[1]": {"system": "human dystrophin 3′UTR", "test": "Dys 3′UTR luciferase reporter assay in C2C12 myoblasts co-transfected with microRNA mimics", "assay_type": "cell-based, mouse", "details": "C2C12 myoblasts co-transfected with 200 ng Dys 3′UTR reporter and 50 nM microRNA mimic, Renilla luciferase normalized to internal control"}, "[2]": {"system": "miR-223", "test": "qRT-PCR of miR-223 in gastrocnemius of drug-treated mdx23 mice", "assay_type": "in vivo, mouse", "details": "5 mg/kg prednisolone or 15 mg/kg VBP-15", "experimental": "(§1) FIG. 8—Treatment with anti-inflammatories modulates dystrophin-targeting microRNAs. (a) VBP15 and prednisolone reduces dystrophin-targeting microRNA levels; miR-146a, miR-146b and miR-223 levels in the gastrocnemius of wild-type mice and vehicle, prednisolone, or […] mdx23 mice were assessed via qPCR; results were normalized to wild-type levels. […] All statistical analyses were performed in Prism Graph Pad 5.0, One-Way ANOVA with Bonferroni post-test (*p<0.05; **p<0.01).\n(§2) 20 mg frozen muscle was homogenized in TriZol reagent (Invitrogen), followed by RNA extraction. microRNAs were quantified with 7900HT Fast Real-Time PCR system using mouse-specific TaqMan microRNA assays with U6 snRNA as a control. Results were calculated as above using the 2(−ΔΔC(T)) method (Schmittgen, 2001).\n(§3) Mdx23 (C57BL/10ScSn-Dmd/J) mice (The Jackson laboratories) were dosed with 5 mg/kg prednisolone or 15 mg/kg […] as previously reported (Heier et al, 2013).\n(§4) Exon skipping therapies in DMD will likely be used in combination with either current glucocorticoid standards of care, or next-generation steroid derivatives moving towards clinical use (Heier et al 2012). Because these drugs affect transcriptional regulation and/or inflammatory miRNA signaling, we tested what their effects on levels of dystrophin-regulating miRNAs might be."}, "[3]": {"system": "miR-146a", "test": "qRT-PCR of miR-146a in gastrocnemius of drug-treated mdx23 mice", "assay_type": "in vivo, mouse", "details": "5 mg/kg prednisolone or 15 mg/kg VBP-15, p<0.01", "experimental": "as §1, §2, §3, §4"}, "[4]": {"system": "miR-382", "test": "qRT-PCR of miR-382 in gastrocnemius of drug-treated mdx23 mice", "assay_type": "in vivo, mouse", "details": "5 mg/kg prednisolone or 15 mg/kg VBP-15, p<0.05 for prednisone", "experimental": "as §1, §2, §3, §4"}, "[5]": {"system": "miR-320a", "test": "qRT-PCR of miR-320a in gastrocnemius of drug-treated mdx23 mice", "assay_type": "in vivo, mouse", "details": "5 mg/kg prednisolone or 15 mg/kg VBP-15, p=0.22 for prednisone", "experimental": "as §1, §2, §3, §4"}, "[6]": {"system": "miR-146b", "test": "qRT-PCR of miR-146b in gastrocnemius of drug-treated mdx23 mice", "assay_type": "in vivo, mouse", "details": "5 mg/kg prednisolone or 15 mg/kg VBP-15", "experimental": "as §1, §2, §3, §4"}, "[7]": {"system": "dystrophin protein", "test": "Systemic delivery of PMO to mdx23 mice, dystrophin rescue by SILAM mass spectrometry and immunoblot", "assay_type": "in vivo, mouse", "details": "single 800 mg/kg intravenous injection, 1 month post-injection, SILAM mass spectrometry", "experimental": "FIG. 7—Dystrophin-regulating microRNAs levels promote observed variability of dystrophin protein production in PMO-treated mdx mice. (a) Dystrophin levels were analyzed via mass spec and miRNA levels were assessed in the diaphragm, TA and Gastroc. […] All statistical analyses were performed in Prism Graph Pad 5.0, One-Way ANOVA with Bonferroni post-test (*p<0.05; **p<0.01; ***p<0.001). (b) The tricep, TA and gastroc in 3 PMO-treated mice were chosen for analysis. Dystrophin levels were analyzed via mass spec and microRNA levels were analyzed via qPCR. For analysis, Each miRNA's values were grouped by muscle, mean and SD were calculated. The deviation from the appropriate mean was calculated for each individual miRNA value. These deviations were assigned a score of low, mid or high, defined by the following rule: those falling within 0.5 SD of the mean were assigned a “mid” score, those greater than 0.5 SD of the mean were assigned a “high score”, and those less than 0.5 SD of the mean were assigned a “low” score. Mean % dystrophin levels were then compared using an independent t-test. […]\nWe tested whether variable levels of dystrophin-regulating microRNAs in muscle […] of dystrophin rescue by exon skipping. […] From one mouse, adjacent cryosections of the tibialis anterior (TA), gastrocnemius, and diaphragm muscles were analyzed for dystrophin protein content by SILAM mass spectrometry (Brown et al. 2013) and immunoblotting, and for dystrophin-regulating microRNA content by TaqMan (real time PCR) assays (FIG. 7a)."}}, "note": "Entries after “also recorded” stand apart in the source; their conditions may differ.", "data": [{"compound": "miR-146a: microRNA mimic; hsa-miR-146a 3′-UUGGGUACCUUAAGUCAAGAGU-5′ (SEQ ID NO: 1) (listed as RNA, chemistry not given here; listed 3' to 5'; listed as Homo sapiens)", "values": [{"measurement": "luciferase protein expression from Dys 3′UTR reporter", "setting": "[1]", "value": "significantly inhibited"}]}, {"compound": "C[C@]12C=CC(=O)C=C1CC[C@@H]1[C@@H]2[C@@H](O)C[C@@]2(C)[C@H]1CC[C@]2(O)C(=O)CO", "note": "[prednisone, prednisolone]", "values": [{"measurement": "miR-223 levels over untreated mice", "setting": "[2]", "value": "trend of decreases"}, {"measurement": "miR-146a levels over untreated mice", "setting": "[3]", "value": "significantly reduced"}, {"measurement": "miR-382 levels, increase in treated mice", "setting": "[4]", "value": "increased"}, {"measurement": "miR-320a levels, increase in treated mice", "setting": "[5]", "value": "increased"}, {"measurement": "miR-146b levels over untreated mice", "setting": "[6]", "value": "trend of decreases"}]}, {"compound": "exon 23-targeting morpholino: PMO (Gene Tools): 5′-GGCCAAACCTCGGCTTACCTGAAAT-3′ (SEQ ID NO:33) (all phosphorodiamidate morpholino (PMO); listed as Mus musculus)", "values": [{"measurement": "dystrophin rescue in diaphragm", "setting": "[7]", "value": 5, "unit": "% wild-type levels"}, {"measurement": "dystrophin rescue in gastrocnemius", "setting": "[7]", "value": 5, "unit": "% wild-type levels"}, {"measurement": "dystrophin rescue in tibialis anterior (TA)", "setting": "[7]", "value": 40, "unit": "% wild-type levels"}]}, {"compound": "C[C@@H]1CC2C3CCC4=CC(=O)C=C[C@]4(C)C3=CC[C@]2(C)[C@@]1(O)C(=O)CO", "note": "(stereo partly drawn) [VBP-15, (10S,13S,16R,17R)-17-hydroxy-17-(2-hydroxyacetyl)-10,13,16-trimethyl-6,7,8,10,12,13,14,15,16,17-decahydro-3H-cyclopenta[a]phenanthren-3-one]", "values": [{"measurement": "miR-223 levels over untreated mice", "setting": "[2]", "value": "trend of decreases"}, {"measurement": "miR-146a levels over untreated mice", "setting": "[3]", "value": "significantly reduced"}, {"measurement": "miR-146b levels over untreated mice", "setting": "[6]", "value": "trend of decreases"}]}, {"compound": "miR-374a: microRNA mimic; hsa-miR-374a 3′-GUGAAUAGUCCAACAUAAUAUU-5′ (SEQ ID NO: 9) (listed as RNA, chemistry not given here; listed 3' to 5'; listed as Homo sapiens)", "values": [{"measurement": "luciferase protein expression from Dys 3′UTR reporter", "setting": "[1]", "value": "significantly inhibited; also recorded: most potent downregulation; also recorded: strong inhibition"}]}, {"compound": "miR-223: microRNA mimic; hsa-miR-223 3′-ACCCCAUAAACUGUUUGACUGU-5′ (SEQ ID NO: 5) (listed as RNA, chemistry not given here; listed 3' to 5'; listed as Homo sapiens)", "values": [{"measurement": "luciferase protein expression from Dys 3′UTR reporter", "setting": "[1]", "value": "significantly inhibited"}]}, {"compound": "miR-382: microRNA mimic; hsa-miR-382 3′-GCUUAGGUGGUGCUUGUUGAAG-5′ (SEQ ID NO: 14) (listed as RNA, chemistry not given here; listed 3' to 5'; listed as Homo sapiens)", "values": [{"measurement": "luciferase protein expression from Dys 3′UTR reporter", "setting": "[1]", "value": "significantly inhibited"}]}, {"compound": "miR-146b-5p: microRNA mimic; hsa-miR-146b-5p 3′-UCGGAUACCUUAAGUCAAGAGU-5′ (SEQ ID NO: 3) (listed as RNA, chemistry not given here; listed 3' to 5'; listed as Homo sapiens)", "values": [{"measurement": "luciferase protein expression from Dys 3′UTR reporter", "setting": "[1]", "value": "significantly inhibited"}, {"measurement": "luciferase protein expression from Dys 3′UTR reporter", "setting": "[1]; listed as miR-146b", "value": "most potent downregulation; also recorded: strong inhibition"}]}, {"compound": "miR-320a: microRNA mimic; hsa-miR-320a 3′-AGCGGGAGAGUUGGGUCGAAAA-5′ (SEQ ID NO: 7) (listed as RNA, chemistry not given here; listed 3' to 5'; listed as Homo sapiens)", "values": [{"measurement": "luciferase protein expression from Dys 3′UTR reporter", "setting": "[1]", "value": "significantly inhibited"}]}]}
